Results: publication PMC7073080, “Characterization of Convergent Suppression by UCL-2077 (3-(Triphenylmethylaminomethyl)pyridine), Known to Inhibit Slow Afterhyperpolarization, of erg-Mediated Potassium Currents and Intermediate-Conductance Calcium-Activated Potassium Channels” (International Journal of Molecular Sciences, 2020)

Target: T1, erg-mediated K+ channel (Kerg, KV11.1) (Rattus norvegicus, UniProt O08962)
T1 construct: gene Kcnh2; native channel in pituitary GH3 cells
T1 sequence (O08962 1-1163): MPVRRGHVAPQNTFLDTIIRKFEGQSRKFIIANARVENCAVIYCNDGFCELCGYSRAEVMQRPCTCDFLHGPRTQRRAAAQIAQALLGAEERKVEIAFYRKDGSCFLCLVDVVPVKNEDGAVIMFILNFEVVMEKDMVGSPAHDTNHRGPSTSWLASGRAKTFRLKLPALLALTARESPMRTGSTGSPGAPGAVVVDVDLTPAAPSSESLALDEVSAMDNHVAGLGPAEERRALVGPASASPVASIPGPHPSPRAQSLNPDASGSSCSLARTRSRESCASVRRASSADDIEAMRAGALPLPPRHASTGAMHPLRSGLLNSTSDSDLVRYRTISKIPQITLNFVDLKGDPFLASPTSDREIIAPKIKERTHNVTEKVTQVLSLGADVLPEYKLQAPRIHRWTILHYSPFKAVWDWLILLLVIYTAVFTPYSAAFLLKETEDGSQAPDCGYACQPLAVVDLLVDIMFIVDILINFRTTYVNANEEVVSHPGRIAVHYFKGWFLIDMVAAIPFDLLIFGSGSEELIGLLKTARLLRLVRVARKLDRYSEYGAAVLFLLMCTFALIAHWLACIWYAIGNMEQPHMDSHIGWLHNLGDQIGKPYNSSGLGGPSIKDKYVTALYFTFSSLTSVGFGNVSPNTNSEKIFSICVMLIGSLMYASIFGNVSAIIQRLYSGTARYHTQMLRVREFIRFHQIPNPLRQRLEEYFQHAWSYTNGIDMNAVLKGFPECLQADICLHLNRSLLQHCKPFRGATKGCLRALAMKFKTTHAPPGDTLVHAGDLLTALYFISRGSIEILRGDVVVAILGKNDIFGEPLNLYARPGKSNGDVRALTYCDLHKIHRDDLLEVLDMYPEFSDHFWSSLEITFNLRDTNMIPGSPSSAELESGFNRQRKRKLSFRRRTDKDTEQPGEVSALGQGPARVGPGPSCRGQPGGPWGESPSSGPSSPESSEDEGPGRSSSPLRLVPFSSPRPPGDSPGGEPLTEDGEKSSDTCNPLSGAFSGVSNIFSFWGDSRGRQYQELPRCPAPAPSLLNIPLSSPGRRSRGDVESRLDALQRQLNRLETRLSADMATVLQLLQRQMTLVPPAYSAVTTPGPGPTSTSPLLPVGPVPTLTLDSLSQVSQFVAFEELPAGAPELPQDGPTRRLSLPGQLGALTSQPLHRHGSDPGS
Assay: whole-cell patch clamp, concentration-response of IK(erg); KCNH2 siRNA knockdown
Format: cell-based
Details: gh3 cells

c1ccc(C(NCc2cccnc2)(c2ccccc2)c2ccccc2)cc1 [UCL-2077, 3-(triphenylmethylaminomethyl)pyridine]
IC50: 4.7 µM
